# Source: US7511144B2, “Reverse hydroxamic acid derivatives” (Kaken Pharmaceutical Co., Ltd., priority 2001, dated 2009)
# Where two headings read alike, the source gives them in different places.
# Experiments:
# Type in all cases: biochemical
# Human MMP1 = biological target: T1, Human MMP1 (Homo sapiens, UniProt P03956); test: MMP1 inhibition experiment; conditions: read-out: IC50 value MMP-1
# T1 construct: purchased Calbiochem 444208
# T1 sequence (P03956 100-469): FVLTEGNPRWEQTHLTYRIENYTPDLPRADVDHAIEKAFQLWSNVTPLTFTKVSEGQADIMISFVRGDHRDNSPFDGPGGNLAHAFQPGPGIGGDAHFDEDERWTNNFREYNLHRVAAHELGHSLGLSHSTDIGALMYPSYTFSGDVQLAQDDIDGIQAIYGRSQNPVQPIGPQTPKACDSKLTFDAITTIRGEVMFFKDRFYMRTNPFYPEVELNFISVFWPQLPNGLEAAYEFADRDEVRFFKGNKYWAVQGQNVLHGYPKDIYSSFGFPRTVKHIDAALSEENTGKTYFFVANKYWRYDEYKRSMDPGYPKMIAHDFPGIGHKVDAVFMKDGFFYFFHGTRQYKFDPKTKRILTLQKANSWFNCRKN
# Human MMP14 = biological target: T2, Human MMP14 (Homo sapiens, UniProt P50281); test: MMP14 inhibition experiment; conditions: concentration required for 50% inhibition of enzyme activity; read-out: IC50 value MMP-14
# T2 construct: purchased Biogenesis or Calbiochem 5980-1461 or 475935
# Protocol: (§1) MMP inhibition experiment may be carried out using a fluorescent synthetic substrate according to, for example, the methods of Bickett et al. (D. Mark Bickett et al., Anal. Biochem., 1993, 212, 58-64) and Nagase et al. (H. Nagase et al., J. Biol. Chem., 1994, 269, 20952-20957). The methods of inhibition experiments carried out for various MMPs are described below.
# Human MMP14 (Biogenesis #5980-1461 or Calbiochem #475935) in amount of 90 μL (4 ng) prepared in the assay buffer A was added to 90 μL of 20 μM fluorescent substrate (Dnp-Pro-Cha-Gly-Cys(Me)-His-Ala-Lys(Nma)-NH2) prepared in the assay buffer B, followed by reaction for 5 hours at 37° C.
# Human MMP17 = biological target: T3, Human MMP17 (Homo sapiens, UniProt Q9ULZ9); test: MMP17 inhibition test; conditions: concentration required for 50% inhibition of enzyme activity; read-out: IC50 value MMP-17
# T3 construct: purchased Calbiochem 475940
# T3 sequence (Q9ULZ9 126-300 limits assumed): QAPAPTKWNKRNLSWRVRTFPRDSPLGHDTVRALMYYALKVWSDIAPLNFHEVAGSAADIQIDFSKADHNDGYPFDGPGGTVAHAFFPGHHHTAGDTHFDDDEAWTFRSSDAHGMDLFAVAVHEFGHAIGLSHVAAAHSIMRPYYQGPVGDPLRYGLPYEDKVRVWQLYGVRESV
# Human MMP13 = biological target: T4, Human MMP13 (Homo sapiens, UniProt P45452); test: MMP13 inhibition experiment; conditions: concentration required for 50% inhibition of enzyme activity; read-out: IC50 value MMP-13
# T4 construct: purchased Chemicon CC068
# Human MMP3 = biological target: T5, Human MMP3 (Homo sapiens, UniProt P08254); test: MMP3 inhibition experiment; conditions: concentration required for 50% inhibition of enzyme activity; read-out: IC50 value MMP-3
# T5 construct: purchased Calbiochem 444217
# T5 sequence (P08254 100-272 limits assumed): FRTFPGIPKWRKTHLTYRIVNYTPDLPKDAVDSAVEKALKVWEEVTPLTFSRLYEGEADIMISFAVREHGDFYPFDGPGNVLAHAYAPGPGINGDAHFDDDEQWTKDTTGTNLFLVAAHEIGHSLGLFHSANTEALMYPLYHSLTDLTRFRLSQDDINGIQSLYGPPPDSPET
# Protocol: as §1
# Human MMP3 (Calbiochem #444217) in 90 μL (5 ng) prepared in the assay buffer A was added to 90 μL of 20 μM fluorescent substrate NFF-3(MOCAc-Arg-Pro-Lys-Pro-Val-Glu-Nva-Trp-Arg-Lys(Dnp)-NH2, Peptide Institute, Inc., #3168-v) prepared in the assay buffer B, followed by reaction for 5 hours at 37° C.
# Human MMP9 = biological target: T6, Human MMP9 (Homo sapiens, UniProt P14780); test: MMP9 inhibition experiment; conditions: read-out: IC50 value MMP-9
# T6 construct: purchased Calbiochem 444231
# T6 sequence (P14780 107-707 limits assumed): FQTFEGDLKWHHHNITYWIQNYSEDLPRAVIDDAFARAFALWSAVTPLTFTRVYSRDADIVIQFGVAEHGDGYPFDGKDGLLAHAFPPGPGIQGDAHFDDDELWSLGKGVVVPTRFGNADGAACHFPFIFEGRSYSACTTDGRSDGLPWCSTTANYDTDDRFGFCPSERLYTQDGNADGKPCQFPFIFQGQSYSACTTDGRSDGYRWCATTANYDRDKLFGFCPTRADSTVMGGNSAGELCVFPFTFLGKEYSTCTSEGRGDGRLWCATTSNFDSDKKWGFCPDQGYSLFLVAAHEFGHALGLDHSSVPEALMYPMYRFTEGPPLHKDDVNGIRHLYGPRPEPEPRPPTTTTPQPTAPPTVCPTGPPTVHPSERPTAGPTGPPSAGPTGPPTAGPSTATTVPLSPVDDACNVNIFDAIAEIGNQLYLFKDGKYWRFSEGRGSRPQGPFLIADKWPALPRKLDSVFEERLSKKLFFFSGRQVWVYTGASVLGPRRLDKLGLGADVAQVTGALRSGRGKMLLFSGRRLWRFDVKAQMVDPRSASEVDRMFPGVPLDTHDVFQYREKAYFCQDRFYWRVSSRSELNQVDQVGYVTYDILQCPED
# TACE = biological target: T7, TACE (Homo sapiens, UniProt P78536); test: TACE inhibition experiment (in vitro)
# T7 construct: made in house; host or cells: mammalian cells or insect cells
# T7 sequence (P78536 215-824): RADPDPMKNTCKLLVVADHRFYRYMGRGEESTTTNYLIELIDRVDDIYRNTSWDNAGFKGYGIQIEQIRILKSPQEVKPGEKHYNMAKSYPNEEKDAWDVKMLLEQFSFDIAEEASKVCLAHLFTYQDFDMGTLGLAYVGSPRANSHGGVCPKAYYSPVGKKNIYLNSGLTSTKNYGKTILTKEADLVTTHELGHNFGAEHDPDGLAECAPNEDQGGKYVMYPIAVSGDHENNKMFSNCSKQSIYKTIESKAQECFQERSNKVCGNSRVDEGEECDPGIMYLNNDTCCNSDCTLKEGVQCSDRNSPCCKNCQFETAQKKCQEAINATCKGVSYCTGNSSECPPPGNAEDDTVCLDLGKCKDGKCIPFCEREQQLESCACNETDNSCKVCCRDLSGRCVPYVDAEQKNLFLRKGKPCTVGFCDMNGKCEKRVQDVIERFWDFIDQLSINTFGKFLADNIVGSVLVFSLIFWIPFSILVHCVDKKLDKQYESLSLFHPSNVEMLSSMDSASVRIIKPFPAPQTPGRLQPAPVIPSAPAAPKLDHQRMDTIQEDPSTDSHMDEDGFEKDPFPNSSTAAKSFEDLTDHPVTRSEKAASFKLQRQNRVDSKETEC
# [1] = concentration required for 50% inhibition of enzyme activity
SMILES,IC50 (Human MMP1) [µM],IC50 (Human MMP14) [µM],IC50 (Human MMP17) [µM],IC50 (Human MMP13) [µM],IC50 (Human MMP3) [µM],IC50 (TACE) [µM],further results
"C=C1CCC(C(CS(=O)(=O)c2ccc(OCc3cc(C)nc4ccccc34)cc2)N(O)C=O)CC1 (stereo not shown) [Example I-1, N-hydroxy-N-[1-(4-methylenecyclohexyl)-2-{4-(2-methylquinolin-4-ylmethoxy)benzenesulfonyl}ethyl]formamide]",50,40,2,7.3,6,,
"Cc1cc(COc2ccc(S(=O)(=O)CC(C=C3CCC(=O)CC3)N(O)C=O)cc2)c2ccccc2n1 (stereo not shown) [Example I-3, N-Hydroxy-N-[2-{4-(2-methylquinolin-4-ylmethoxy)benzenesulfonyl}-1-(4-oxocyclohexylidenemethyl)ethyl]formamide]",> 100,43,2.5,22,6.3,,IC50 (Human MMP9; [1]): 50 µM; IC50 (TACE; [1]): 0.0035 µM
"C=C1CCC(C(CS(=O)(=O)c2ccc(OCc3cc(C)cc(C)c3)cc2)N(O)C=O)CC1 (stereo not shown) [Example I-5, N-[2-{4-(3,5-Dimethylbenzyloxy)benzenesulfonyl}-1-(4-methylenecyclohexyl)ethyl]-N-hydroxyformamide]",33,25,5,10,20,0.43,IC50 (Human MMP9): 22 µM
"Cc1cc(COc2ccc(S(=O)(=O)CC(C=C3CCC(=NO)CC3)N(O)C=O)cc2)c2ccccc2n1 (stereo not shown) [Example I-6, N-Hydroxy-N-[1-(4-hydroxyiminocyclohexylidenemethyl)-2-{4-(2-methylquinolin-4-ylmethoxy)benzenesulfonyl}ethyl]formamide]",80,50,3,15,5,,IC50 (Human MMP9): 45 µM
Cc1cc(COc2ccc(S(=O)(=O)CC(C3CCC(=NO)CC3)N(O)C=O)cc2)c2ccccc2n1 (stereo not shown) [Example I-14],30,23,,,,,
O=CN(O)C(CC1CCC2(CC1)OCCO2)CS(=O)(=O)c1ccc(OCc2ccc3ccccc3n2)cc1 (stereo not shown) [Example I-87],,,,,,5.7,
O=CN(O)C(CC1CCC(=NO)CC1)CS(=O)(=O)c1ccc(OCc2ccc3ccccc3n2)cc1 (stereo not shown) [Example I-88],,,,,,0.76,
O=CN(O)C(CC1CCC(=O)CC1)CS(=O)(=O)c1ccc(OCc2ccc3ccccc3n2)cc1 (stereo not shown) [Example I-89],,,,,,0.82,
Cc1cc(C)cc(COc2ccc(S(=O)(=O)CC(CC3CCC4(CC3)OCCO4)N(O)C=O)cc2)c1 (stereo not shown) [Example I-90],,,,,,2.1,
COCc1cc(COc2ccc(S(=O)(=O)CC(CC3CCC4(CC3)OCCO4)N(O)C=O)cc2)cc(C)n1 (stereo not shown) [Example I-121],,,,,,0.36,
COCc1cc(COc2ccc(S(=O)(=O)CC(CC3CCC(=O)CC3)N(O)C=O)cc2)cc(C)n1 (stereo not shown) [Example I-123],,,,,,0.29,

# The remaining compounds from weak to strong by IC50 (TACE), led by results:
IC50 (Human MMP1) [µM],IC50 (Human MMP14) [µM],IC50 (Human MMP17) [µM],IC50 (Human MMP13) [µM],IC50 (Human MMP3) [µM],IC50 (TACE) [µM],SMILES,further results
,,,,,0.27,Cc1cc(COc2ccc(S(=O)(=O)CC(CCc3ccccc3C)N(O)C=O)cc2)c2ccccc2n1 (stereo not shown) [Example I-40],
43,40,6,10,20,0.2,"C=C1CCC(C(CS(=O)(=O)c2ccc(OCc3cc(C)cc(OC)c3)cc2)N(O)C=O)CC1 (stereo not shown) [Example I-7, N-Hydroxy-N-[2-{4-(3-methoxy-5-methylbenzyloxy)benzenesulfonyl)-1-(4-methylenecyclohexyl)ethyl]formamide]",IC50 (Human MMP9): 30 µM
> 100,43,2,2.5,5,0.06,"C=C1CCC(C(CS(=O)(=O)c2ccc(OCc3cc(C)nc(C)c3)cc2)N(O)C=O)CC1 (stereo not shown) [Example I-4, N-[2-{4-(2,6-dimethylpyridin-4-ylmethoxy)benzenesulfonyl}-1-(4-methylenecyclohexyl)ethyl]-N-hydroxyformamide]",IC50 (Human MMP9): 40 µM
,,,,,0.0082,CCC(CC)C(=O)N1CCCC(=CC(CS(=O)(=O)c2ccc(OCc3cc(C)nc4ccccc34)cc2)N(O)C=O)CC1 (stereo not shown) [Example I-139],
,,,,,0.0082,Cc1cc(COc2ccc(S(=O)(=O)CC(C=C3CCCN(CC(C)C)CC3)N(O)C=O)cc2)c2ccccc2n1 (stereo not shown) [Example I-140],
,,,,,0.004,Cc1cccc(C(CS(=O)(=O)c2ccc(OCc3cc(C)nc4ccccc34)cc2)N(O)C=O)n1 (stereo not shown) [Example I-135],
,,,,,0.0028,Cc1cc(COc2ccc(S(=O)(=O)CC(C=C3CCCN(S(C)(=O)=O)CC3)N(O)C=O)cc2)c2ccccc2n1 (stereo not shown) [Example I-138],
